Experimental data reported in patent US5518912A, “Endopeptidase” (priority 1993, dated 1996).
Positions of bridges follow the written chain, without caps; N, C: chain ends. Non-standard residues stand in square brackets, D forms with d. Residues, ends and D or L forms follow the SMILES beside them. *: point of attachment. Ileψ(thiazoline)Cys = CC[C@H](C)[C@H](N)C1=N[C@H](C(=O)*)CS1; Sta = CC(C)C[C@H](N)[C@@H](O)CC(=O)O; dOrn = NCCC[C@@H](N)C(=O)O; Isovaleryl = CC(C)CC(=O)*

Assays:
[1] = test system: endopeptidase from the skin of Xenopus laevis; assay: Inhibitor studies: enzyme preincubated with inhibitor, then cleavage of substrate peptide read on acid gel; format: biochemical; conditions: for % INHIBITION: substrate magainin 2-amide; for effect of proteinase inhibitor on enzyme activity (in words): summary of Table 2
Description: Reaction buffer consisted of 20 mM Na phosphate, 50 mM NaCl final concentration. After quenching the reaction with 0.5 volume of glacial acetic acid, a 15 μl aliquot of each reaction was analyzed by acidic gel electrophoresis. […]
Inhibitor studies were conducted in the same fashion; the only difference involved first incubating the enzyme with each inhibitor tested at a particular concentration in the absence of any substrate for one hour at room temperature. Substrate was then added to the reaction and allowed to incubate for an additional hour at room temperature.
ACIDIC GEL ELECTROPHORESIS--Acidic gels (pH 4) were prepared and run as originally described (Gabriel, 1971) with several modifications. The gel solution consisted of a final concentration of 15% (v/v) acrylamide (acrylamide:bisacrylamide/37.5:1), 88 mM KOH, 3% (v/v) glacial acetic acid, 0.75% (v/v) […] (Temed), 0.375% ammonium persulfate (30 mg/ml). Before loading samples, 0.5 volume of glacial acetic acid was added, as well as 0.5 volume of 0.1% Pyronin Y loading dye. MINI PROTEAN gel apparatus (Biorad, Richmond, Calif.) were used and gels electrophoresed at 200 volts in running buffer containing 0.035M β-alanine and glacial acetic acid (2.45 ml/l), pH 4.0. Gels were stained in 0.1% (w/v) Coomassie Brilliant Blue R-250 (Sigma), 50% methanol, 50% water and destained in distilled water.

[2] = test system: endopeptidase from the skin of Xenopus laevis; assay: Substrate specificity analyses: cleavage of peptides and analogues by the purified endopeptidase (acid gel, HPLC/amino acid analysis); format: biochemical; conditions: 50 μg peptide, one hour, room temperature
Description: ENZYME ASSAYS--Activity was monitored by incubating 0.1-10 μl of each chromatographic fraction with 50 μg of magainin 2-amide substrate in a total volume of 100 μl for one hour at room temperature. Reaction buffer consisted of 20 mM Na phosphate, 50 mM NaCl final concentration. After quenching the reaction with 0.5 volume of glacial acetic acid, a 15 μl aliquot of each reaction was analyzed by acidic gel electrophoresis. One unit of enzyme activity is defined as the amount of enzyme required to convert 25 μg of magainin 2-amide substrate into half-peptide products under the above conditions.
Substrate specificity analyses were carried out as described above except that 50 μg of each substrate analogue under investigation was substituted for magainin 2-amide in the incubation at the same concentration.
Before loading samples, 0.5 volume of glacial acetic acid was added, as well as 0.5 volume of 0.1% Pyronin Y loading dye. […]
100 μl reactions were injected into a Beckman HPLC System Gold instrument and run on a C18 reversed phase column (4.6×220 mm, Aquapore OD-300, Applied Biosystems, Foster City, Calif.). […] Portions of the resuspended sample were injected into an amino acid analyzer with automated hydrolysis (model 420/130, Applied Biosystems, Foster City, Calif.), and numerical calculations for specific amino acids were determined using an Applied Biosystems 920A data analysis module.

[3] = inhibitor 1 mM, one unit endopeptidase preincubated one hour

c1cnc2c(c1)ccc1cccnc12 [1,10-Phenanthroline, 1,10-phenanthroline]
% INHIBITION ([1]; inhibitor 0.2 mM): 70% | % INHIBITION ([1]; inhibitor 2 mM): 100% | % INHIBITION ([1]; inhibitor 20 mM): 100% | effect of proteinase inhibitor on enzyme activity (in words) [1]: substantially inhibited enzyme activity

CC[C@H](C)[C@H](N)C1=N[C@H](C(=O)N[C@@H](CC(C)C)C(=O)N[C@H](CCC(=O)O)C(=O)N[C@H](C(=O)N[C@H]2CCCCNC(=O)[C@H](CC(N)=O)NC(=O)[C@@H](CC(=O)O)NC(=O)[C@H](Cc3cnc[nH]3)NC(=O)[C@@H](Cc3ccccc3)NC(=O)[C@H]([C@@H](C)CC)NC(=O)[C@@H](CCCN)NC2=O)[C@@H](C)CC)CS1 [Bacitracin, bacitracin] ({Ileψ(thiazoline)Cys}-L[dE]IK[dOrn]I[dF]H[dD]N; lactam 4-C)
% INHIBITION ([1]; inhibitor 1 mg/ml): 0% | effect of proteinase inhibitor on enzyme activity (in words) [1]: no effect on endoproteolysis

CC(C)C[C@H](NC(=O)[C@H]1O[C@@H]1C(=O)O)C(=O)NCCCCN=C(N)N [E-64, N-[N-(L-3-trans-carboxyoxiran-2-carbonyl)-L-leucyl]-agmatine]
% INHIBITION ([1]; inhibitor 300 μM): 0% | effect of proteinase inhibitor on enzyme activity (in words) [1]: no effect on enzyme activity

O=C(O)CN(CCN(CC(=O)O)CC(=O)O)CC(=O)O [EDTA, ethylenediaminetetraacetic acid]
% INHIBITION ([1]; inhibitor 0.5 mM): 25% | % INHIBITION ([1]; inhibitor 5 mM): 25% | % INHIBITION ([1]; inhibitor 50 mM): 50% | effect of proteinase inhibitor on enzyme activity (in words) [1]: substantially inhibited enzyme activity

CC(=O)N[C@@H](CC(C)C)C(=O)N[C@@H](CC(C)C)C(=O)N[C@H](C=O)CCCNC(=N)N [Leupeptin, leupeptin]
% INHIBITION [1, 3]: 0% | effect of proteinase inhibitor on enzyme activity (in words) [1]: no effect on enzyme activity

O=S(=O)(F)Cc1ccccc1 [PMSF, phenylmethanesulfonyl fluoride]
% INHIBITION ([1]; inhibitor 10 mM): 0% | effect of proteinase inhibitor on enzyme activity (in words) [1]: no effect on enzyme activity

CC(C)CC(=O)N[C@H](C(=O)N[C@H](C(=O)N[C@@H](CC(C)C)[C@@H](O)CC(=O)N[C@@H](C)C(=O)N[C@@H](CC(C)C)[C@@H](O)CC(=O)O)C(C)C)C(C)C [Pepstatin, pepstatin] (Isovaleryl-VV[Sta]A[Sta]-OH)
% INHIBITION ([1]; inhibitor 100 μm, one unit endopeptidase preincubated one hour): 0% | effect of proteinase inhibitor on enzyme activity (in words) [1]: no effect on enzyme activity

CC(C)C[C@H](NP(=O)(O)O[C@@H]1O[C@@H](C)[C@H](O)[C@@H](O)[C@H]1O)C(=O)N[C@@H](Cc1c[nH]c2ccccc12)C(=O)O [Phosphoramidon, phosphoramidon]
% INHIBITION ([1]; inhibitor 1 μM): 0% | % INHIBITION ([1]; inhibitor 100 μM): 0% | effect of proteinase inhibitor on enzyme activity (in words) [1]: no effect on endoproteolysis

CC[C@H](C)[C@H](NC(=O)CN)C(=O)NCC(=O)N[C@@H](C)C(=O)N[C@H](C(=O)N[C@@H](CC(C)C)C(=O)N[C@@H](CCCCN)C(=O)N[C@H](C(=O)N[C@@H](CC(C)C)C(=O)N[C@H](C(=O)N[C@H](C(=O)NCC(=O)N[C@@H](CC(C)C)C(=O)N1CCC[C@H]1C(=O)N[C@@H](C)C(=O)N[C@@H](CC(C)C)C(=O)N[C@H](C(=O)N[C@@H](CO)C(=O)N[C@@H](Cc1c[nH]c2ccccc12)C(=O)N[C@H](C(=O)N[C@@H](CCCCN)C(=O)N[C@@H](CCCNC(=N)N)C(=O)N[C@@H](CCCCN)C(=O)N[C@@H](CCCNC(=N)N)C(=O)N[C@@H](CCC(N)=O)C(=O)N[C@@H](CCC(N)=O)C(N)=O)[C@@H](C)CC)[C@@H](C)CC)[C@@H](C)O)[C@@H](C)O)C(C)C)C(C)C [melittin]
cleavage of the peptide by the endopeptidase (in words) [2]: do not serve as substrates | inhibition of cleavage of magainin 2 ([1]; preincubation with tenfold molar excess of peptide, substrate magainin 2): approximately 25%

K11R: magainin 1 analogue constituting the replacement of all lysines with arginines
cleavage of the peptide by the endopeptidase (in words) [2]: effectively served as a substrate

tosyl-L-phenylalanine chloromethyl ketone [TPCK]
% INHIBITION [1, 3]: 0% | effect of proteinase inhibitor on enzyme activity (in words) [1]: no effect on enzyme activity
